According to EP4752152A1, “STEROID COMPOUND, AND PREPARATION METHOD THEREFOR AND USE THEREOF” (Cholesgen (Shanghai) Co.Ltd., priority 2023, dated 2025):
pIC50: −log10 of the molar value.

The compounds below were run on SREBP pathway (assay: SREBP luciferase reporter gene system (SRE-luciferase assay)). Details: Homo sapiens, Huh-7, 16 h, Huh-7/SRE-luc cells, sterol-deficient medium, 0.01-10 µM.
Format: cell-based, human
Summary of the method: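 Readout was SRE-driven luciferase normalised to GFP fluorescence in lysates of stably transfected Huh-7/SRE-luc hepatoma cells. Compounds (0.01, 0.03, 0.1, 0.3, 1.0, 3.0, 10 µM; DMSO control) were applied for 16 h in sterol-depleted medium with 2 µM lovastatin and 10 µM mevalonate; IC50 from variable-slope fit.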

Structure (SMILES)	IC50
C[C@H](CCC[C@H](O)c1nn(C)c2ccccc12)[C@H]1CC[C@H]2[C@H]3[C@H](CC[C@]12C)[C@@]1(C)CC[C@H](O)[C@H](O)[C@@H]1CC3(F)F [Compound 323, (1R,3aS,3bS,5aR,6R,7S,9aR,9bS,11aR)-4,4-difluoro-1-[(2R,6S)-6-hydroxy-6-(1-methylindazol-3-yl)hexan-2-yl]-9a,11a-dimethylhexadecahydro-1H-cyclopenta[1,2-a]phenanthrene-6,7-diol]	0.262 µM
C[C@H](CCC[C@@H](O)c1nn(C)c2ccccc12)[C@H]1CC[C@H]2[C@H]3[C@H](CC[C@]12C)[C@@]1(C)CC[C@H](O)[C@H](O)[C@@H]1CC3(F)F [Compound 324, (1R,3aS,3bS,5aR,6R,7S,9aR,9bS,11aR)-4,4-difluoro-1-[(2R,6R)-6-hydroxy-6-(1-methylindazol-3-yl)hexan-2-yl]-9a,11a-dimethylhexadecahydro-1H-cyclopenta[1,2-a]phenanthrene-6,7-diol]	1.51 µM
C[C@H](CCCC(O)c1c2ccccc2nn1C)[C@H]1CC[C@H]2[C@H]3[C@H](CC[C@]12C)[C@@]1(C)CC[C@H](O)[C@H](O)[C@@H]1CC3(F)F (stereo partly drawn) [Compound 325, (1R,3aS,3bS,5aR,6R,7 S,9aR,9bS,11aR)-4,4-Difluoro-1-[(2R)-6-hydroxy-6-(2-methylindazol-3-yl)hexan-2-yl]-9a,11a-dimethylhexadecahydro-1H-cyclopenta[1,2-a]phenanthrene-6,7-diol]	0.148 µM
COc1nc(F)ccc1[C@@H](O)CC[C@@H](C)[C@H]1CC[C@H]2C3=C(F)C[C@H]4[C@@H](O)[C@@H](O)CC[C@]4(C)[C@H]3CC[C@]12C [Compound 339, (1R,3aR,5aR,6R,7S,9aR,9bR,11aR)-4-fluoro-1-[(2R,5S)-5-(6-fluoro-2-methoxypyridin-3-yl)-5-hydroxypentan-2-yl]-9a,11a-dimethyl-2,3,3a,5,5a,6,7,8,9,9a,9b,10,11,11a-tetradecahydro-1H-cyclopenta[1,2-a]phenanthrene-6,7-diol]	0.143 µM
COc1nc(F)ccc1[C@H](O)CC[C@@H](C)[C@H]1CC[C@H]2C3=C(F)C[C@H]4[C@@H](O)[C@@H](O)CC[C@]4(C)[C@H]3CC[C@]12C [Compound 340, (1R,3aR,5aR,6R,7S,9aR,9bR,11aR)-4-fluoro-1-[(2R,5R)-5-(6-fluoro-2-methoxypyridin-3-yl)-5-hydroxypentan-2-yl]-9a,11a-dimethyl-2,3,3a,5,5a,6,7,8,9,9a,9b,10,11,11a-tetradecahydro-1H-cyclopenta[1,2-a]phenanthrene-6,7-diol]	0.108 µM
COc1nc(F)ccc1C(O)CC[C@@H](C)[C@H]1CC[C@H]2[C@H]3[C@H](CC[C@]12C)[C@@]1(C)CC[C@H](O)[C@H](O)[C@@H]1CC3(F)F (stereo partly drawn) [Compound 341, (1R,3aS,3bS,5aR,6R,7S,9aR,9bS,11aR)-4,4-difluoro-1-[(2R)-5-(6-fluoro-2-methoxypyridin-3-yl)-5-hydroxypentan-2-yl]-9a,11a-dimethylhexadecahydro-1H-cyclopenta[1,2-a]phenanthrene-6,7-diol]	0.206 µM
C[C@H](CCC(O)c1ccc(F)nc1OC1CC1)[C@H]1CC[C@H]2[C@H]3[C@H](CC[C@]12C)[C@@]1(C)CC[C@H](O)[C@H](O)[C@@H]1CC3(F)F (stereo partly drawn) [Compound 382, (1R,3aS,3bS,5aR,6R,7S,9aR,9bS,11aR)-1-[(2R)-5-[2-(cyclopropyloxy)-6-fluoropyridin-3-yl]-5-hydroxypentan-2-yl]-4,4-difluoro-9a,11a-dimethylhexadecahydro-1H-cyclopenta[1,2-a]phenanthrene-6,7-diol]	0.057 µM
C[C@H](CCCC(O)c1ccc(F)nc1OCC1COC1)[C@H]1CC[C@H]2[C@H]3[C@H](CC[C@]12C)[C@@]1(C)CC[C@H](O)[C@H](O)[C@@H]1CC3(F)F (stereo partly drawn) [Compound 383, (1R,3aS,3bS,5aR,6R,7S,9aR,9bS,11aR)-4,4-difluoro-1-[(2R)-6-{6-fluoro-2-[(oxetan-3-ylmethyl)oxy]pyridin-3-yl}-6-hydroxyhexan-2-yl]-9a,11a-dimethylhexadecahydro-1H-cyclopenta[1,2-a]phenanthrene-6,7-diol]	0.041 µM
C[C@H](CCCC(O)c1nnnn1C)[C@H]1CC[C@H]2[C@H]3[C@H](CC[C@]12C)[C@@]1(C)CC[C@H](O)[C@H](O)[C@@H]1CC3(F)F (stereo partly drawn) [Compound 384, (1R,3aS,3bS,5aR,6R,7 S,9aR,9bS,11aR)-4,4-Difluoro-1-[(2R)-6-hydroxy-6-(1-methyl-1,2,3,4-tetrazol-5-yl)hexan-2-yl]-9a,11a-dimethylhexadecahydro-1H-cyclopenta[1,2-a]phenanthrene-6,7-diol]	0.185 µM
C[C@H](CCC[C@H](O)c1ccc(F)nc1OCC1COC1)[C@H]1CC[C@H]2[C@H]3[C@H](CC[C@]12C)[C@@]1(C)CC[C@H](O)[C@H](O)[C@@H]1CC3(F)F [Compound 385, (1R,3aS,3bS,5aR,6R,7S,9aR,9bS,11aR)-4,4-difluoro-1-[(2R,6S)-6-{6-fluoro-2-[(oxetan-3-ylmethyl)oxy]pyridin-3-yl}-6-hydroxyhexan-2-yl]-9a,11a-dimethylhexadecahydro-1H-cyclopenta[1,2-a]phenanthrene-6,7-diol]	0.332 µM
C[C@H](CCC[C@@H](O)c1ccc(F)nc1OCC1COC1)[C@H]1CC[C@H]2[C@H]3[C@H](CC[C@]12C)[C@@]1(C)CC[C@H](O)[C@H](O)[C@@H]1CC3(F)F [Compound 386, (1R,3aS,3bS,5aR,6R,7S,9aR,9bS,11aR)-4,4-difluoro-1-[(2R,6R)-6-{6-fluoro-2-[(oxetan-3-ylmethyl)oxy]pyridin-3-yl}-6-hydroxyhexan-2-yl]-9a,11a-dimethylhexadecahydro-1H-cyclopenta[1,2-a]phenanthrene-6,7-diol]	0.026 µM

Same assay, conditions: Huh-7/SRE-luc cells, sterol-deficient medium, 16 hours, 0.01-10 µM

Structure (SMILES)	IC50
COc1ccnc(OC)c1C(O)CCC[C@@H](C)[C@H]1CC[C@H]2[C@H]3[C@H](CC[C@]12C)[C@@]1(C)CC[C@H](O)[C@H](O)[C@@H]1CC3(F)F (single isomer, unassigned) [Compound 171, (1R,3aS,3bS,5aR,6R,7S,9aR,9bS,11aR)-1-[(2R,6S)-6-(2,4-dimethoxypyridin-3-yl)-6-hydroxyhexan-2-yl]-4,4-difluoro-9a,11a-dimethylhexadecahydro-1H-cyclopenta[1,2-a]phenanthrene-6,7-diol or (1R,3aS,3bS,5aR,6R,7S,9aR,9bS,11aR)-1-[(2R,6R)-6-(2,4-dimethoxypyridin-3-yl)-6-hydroxyhexan-2-yl]-4,4-difluoro-9a,11a-dimethylhexadecahydro-1H-cyclopenta[1,2-a]phenanthrene-6,7-diol]	0.013 µM
C[C@H](CCCC(O)c1cccc(OC(F)(F)F)c1)[C@H]1CC[C@H]2[C@H]3[C@H](CC[C@]12C)[C@@]1(C)CC[C@H](O)[C@H](O)[C@@H]1CC3(F)F (single isomer, unassigned) [Compound 191, (1R,3aS,3bS,5aR,6R,7S,9aR,9bS,11aR)-4,4-difluoro-1-[(2R,6R)-6-hydroxy-6-{3-[(trifluoromethyl)oxy]phenyl}hexan-2-yl]-9a,11a-dimethylhexadecahydro-1H-cyclopenta[1,2-a]phenanthrene-6,7-diol or (1R,3aS,3bS,5aR,6R,7S,9aR,9bS,11aR)-4,4-difluoro-1-[(2R,6S)-6-hydroxy-6-(2-methoxypyridin-3-yl)hexan-2-yl]-9a,11a-dimethylhexadecahydro-1H-cyclopenta[1,2-a]phenanthrene-6,7-diol]	0.246 µM
C[C@H](CCC[C@H](O)c1cc2ccccc2o1)[C@H]1CC[C@H]2[C@H]3[C@H](CC[C@]12C)[C@@]1(C)CC[C@H](O)[C@H](O)[C@@H]1CC3(F)F [Compound 321, (1R,3aS,3bS,5aR,6R,7S,9aR,9bS,11aR)-1-[(2R,6S)-6-(1-benzofuran-2-yl)-6-hydroxyhexan-2-yl]-4,4-difluoro-9a,11a-dimethylhexadecahydro-1H-cyclopenta[1,2-a]phenanthrene-6,7-diol]	0.114 µM
C[C@H](CCC[C@@H](O)c1cc2ccccc2o1)[C@H]1CC[C@H]2[C@H]3[C@H](CC[C@]12C)[C@@]1(C)CC[C@H](O)[C@H](O)[C@@H]1CC3(F)F [Compound 322, (1R,3aS,3bS,5aR,6R,7S,9aR,9bS,11aR)-1-[(2R,6R)-6-(1-benzofuran-2-yl)-6-hydroxyhexan-2-yl]-4,4-difluoro-9a,11a-dimethylhexadecahydro-1H-cyclopenta[1,2-a]phenanthrene-6,7-diol]	0.339 µM

These compounds were tested on Fatty Acid Synthase (FASN) gene (assay: Inhibition of FASN gene expression (qPCR) in Huh-7 cells). Details: Homo sapiens, Huh-7, 16 h, Huh-7 cells, starvation medium, 16 hours, qPCR; class symbols; read-out: FASN IC50.
Format: cell-based, human
Procedure: Huh-7 cells (purchased from ATCC) were cultured in DMEM medium (containing 10% fetal bovine serum LONSERA S711-001S) at 37°C in a 5% CO2 incubator. After 24 hours, the original medium was aspirated and replaced with DMEM starvation medium (containing 5% lipoprotein deficient serum (LPDS), 2 µM lovastatin, and 10 µM mevalonate). The control group was treated with dimethyl sulfoxide (DMSO), while the compound treatment groups were treated with different concentrations of compounds. The highest concentration of the compound was 3000 nM, with 3-fold dilutions, totaling 5 concentrations. The cells were cultured for 16 hours. Cell lysis was performed, followed by reverse transcription from cells to cDNA, and qPCR was performed to detect the expression of the SREBP target gene Fatty Acid Synthase (FASN) gene (FASN gene forward primer sequence: 5'-[…]-3', reverse primer sequence: 5'-[…]-3'). The IC50 was calculated. The test data for each test compound were analyzed using Prism software (with the DMSO-treated group as the reference to calculate the compound inhibition rate, fitted using the Prism log(inhibitor) vs. responseVariable slope (four-parameter) model, calculation formula: Y = Bottom + (Top - Bottom)/(1 + 10^((LogIC50 - X) × HillSlope))), to obtain the IC50 parameters of the compounds. Table 4: Inhibition results of FASN gene expression by compounds from some examples

Structure (SMILES)	pIC50
COc1ccnc(OC)c1C(O)CCC[C@@H](C)[C@H]1CC[C@H]2[C@H]3[C@H](CC[C@]12C)[C@@]1(C)CC[C@H](O)[C@H](O)[C@@H]1CC3(F)F (single isomer, unassigned) [Compound 171, (1R,3aS,3bS,5aR,6R,7S,9aR,9bS,11aR)-1-[(2R,6S)-6-(2,4-dimethoxypyridin-3-yl)-6-hydroxyhexan-2-yl]-4,4-difluoro-9a,11a-dimethylhexadecahydro-1H-cyclopenta[1,2-a]phenanthrene-6,7-diol or (1R,3aS,3bS,5aR,6R,7S,9aR,9bS,11aR)-1-[(2R,6R)-6-(2,4-dimethoxypyridin-3-yl)-6-hydroxyhexan-2-yl]-4,4-difluoro-9a,11a-dimethylhexadecahydro-1H-cyclopenta[1,2-a]phenanthrene-6,7-diol]	> 6.70
C[C@H](CCCC(O)c1cccc(OC(F)(F)F)c1)[C@H]1CC[C@H]2[C@H]3[C@H](CC[C@]12C)[C@@]1(C)CC[C@H](O)[C@H](O)[C@@H]1CC3(F)F (single isomer, unassigned) [Compound 191, (1R,3aS,3bS,5aR,6R,7S,9aR,9bS,11aR)-4,4-difluoro-1-[(2R,6R)-6-hydroxy-6-{3-[(trifluoromethyl)oxy]phenyl}hexan-2-yl]-9a,11a-dimethylhexadecahydro-1H-cyclopenta[1,2-a]phenanthrene-6,7-diol or (1R,3aS,3bS,5aR,6R,7S,9aR,9bS,11aR)-4,4-difluoro-1-[(2R,6S)-6-hydroxy-6-(2-methoxypyridin-3-yl)hexan-2-yl]-9a,11a-dimethylhexadecahydro-1H-cyclopenta[1,2-a]phenanthrene-6,7-diol]	6.30 to 6.70
